Source: patent US6426087B1, “Orally administrable immediate-release and prolonged-release galenic form comprising an absorption-promoting agent and use of this absorption-promoting agent” (Merck Patent Gesellschaft mit, priority 1998, dated 2002)

How the values were obtained:
Caco-2 line = test: Permeability of carbon 14-labelled acamprosate with promoting agents in the Caco-2 cellular model (diffusion chamber); format: in vitro ADME, human; details: Papp of acamprosate
Text: (§1) Actions of various promoting agents or mixtures of promoting agents on the permeability of calcium acetylhomotaurinate, in the Caco-2 cellular model.
(§2) A solution of carbon 14-labelled acamprosate, of known concentration, is placed in the apical compartment of a Grass Sweetana-type diffusion chamber which comprises a second so-called basolateral compartment separated from the first by an insert supporting a monocellular confluent culture of human colon adenocarcinoma […] epithelial cells, Caco-2 line.
(§3) Samples are collected at regular intervals from the second basolateral compartment. The acamprosate concentration is determined by […]. A simple calculation makes it possible to obtain the apparent permeability coefficient (Papp). The acamprosate solution is supplemented with various promoting agents or mixtures of promoting agents, under varying conditions. The influence of these agents on the apparent permeability coefficient (Papp) was measured. The experimental results are grouped together in the following table where the apparent permeability coefficient values (Papp) are expressed in cm/s.

[1] = as above; format: in vitro ADME, human; details: human, Caco-2; acamprosate solution, promoting agent: None; apical to basolateral; read-out: Papp, Mean (n = 6)
Text: as §1, §2, §3

SMILES: CCCCCCCCCC(=O)O [Capric]
- Papp, Mean (n = 6) (Caco-2 line; promoting agent Conc. 0.25 % m/v): 63.6 10^−7 cm/s

SMILES: CC(=O)NCCCS(=O)(=O)O [acamprosate, calcium 3-acetylamino-1-propanesulphonate, reference compound]
- Papp A→B [1]: 24 nm/s

SMILES: C[C@H](CCC(=O)NCC(=O)[O-])[C@H]1CC[C@H]2[C@@H]3[C@H](O)C[C@@H]4C[C@H](O)CC[C@]4(C)[C@H]3C[C@H](O)[C@]12C.[Na+] [Na glycocholate, sodium glycocholate]
- Papp, Mean (n = 6) (Caco-2 line; promoting agent Conc. 0.2 % m/v): 114 10^−7 cm/s
